# Source: PubChem BioAssay (NCI)
#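 Compound exposure: 48 hours, 5 concentrations, 96-well plates. TGI marks complete inhibition of growth.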
# Columns and labels:
# Experiment in all cases: NCI-60 cell line screen, 48 h
# 786-0 renal = system: 786-0 renal
# IGROV1 ovarian = system: IGROV1 ovarian
# KM12 colon = system: KM12 colon
# M14 melanoma = system: M14 melanoma
# MCF7 breast = system: MCF7 breast
# MDA-N = system: MDA-N
# NCI-H522 lung = system: NCI-H522 lung
# OVCAR-5 ovarian = system: OVCAR-5 ovarian
# SNB-75 CNS = system: SNB-75 CNS
# TK-10 renal = system: TK-10 renal
# UACC-257 melanoma = system: UACC-257 melanoma
Structure (SMILES),TGI (786-0 renal) [µM],TGI (IGROV1 ovarian) [µM],TGI (KM12 colon) [µM],TGI (M14 melanoma) [µM],TGI (MCF7 breast) [µM],TGI (MDA-N) [µM],TGI (NCI-H522 lung) [µM],TGI (OVCAR-5 ovarian) [µM],TGI (SNB-75 CNS) [µM],TGI (TK-10 renal) [µM],TGI (UACC-257 melanoma) [µM]
O=C1c2cc([N+](=O)[O-])cnc2S(=O)(=O)N1c1ccc(Br)cc1,> 100,> 100,> 100,> 100,> 100,> 100,> 100,> 100,> 100,> 100,> 100
CCCN=C1Nc2ccccc2[C@@H]2N(C)c3ccccc3C(C)C[C@]12C (stereo not given in full),33.9,43.5,34.9,33,49.3,38.7,39.8,46.8,49.8,34.2,25.6
OCCN1CN(c2nc(N3CN(CCO)C3)nc(N3CN(CCO)C3)n2)C1,60.7,85.6,47.9,34.3,46.9,32.3,30,60.2,57,78.7,36.2
O=C(O)CCC(C(=O)O)N1C(=O)c2ccccc2C1=O (stereo not given),> 100,> 100,> 100,> 100,> 100,> 100,> 100,> 100,> 100,> 100,> 100
O=S(=O)(O)c1ccc2c(N=Nc3ccccc3)c(O)c(S(=O)(=O)O)cc2c1,> 100,> 100,> 100,> 100,> 100,> 100,> 100,> 100,> 100,> 100,> 100
